Where two headings read alike, the source gives them in different places.
Target: CK2 (Homo sapiens (Human), UniProt P68400)
Assay: Radiometric CK2 kinase assay
Assay type: biochemical
Conditions: for inhibition at 1 µM: compound at 1 μM; for inhibition at 0.1 µM: compound at 0.10 μM
[1] = inhibition of CK2 activity, ATP 10 μM

Chain of CK2 (P68400 whole entry): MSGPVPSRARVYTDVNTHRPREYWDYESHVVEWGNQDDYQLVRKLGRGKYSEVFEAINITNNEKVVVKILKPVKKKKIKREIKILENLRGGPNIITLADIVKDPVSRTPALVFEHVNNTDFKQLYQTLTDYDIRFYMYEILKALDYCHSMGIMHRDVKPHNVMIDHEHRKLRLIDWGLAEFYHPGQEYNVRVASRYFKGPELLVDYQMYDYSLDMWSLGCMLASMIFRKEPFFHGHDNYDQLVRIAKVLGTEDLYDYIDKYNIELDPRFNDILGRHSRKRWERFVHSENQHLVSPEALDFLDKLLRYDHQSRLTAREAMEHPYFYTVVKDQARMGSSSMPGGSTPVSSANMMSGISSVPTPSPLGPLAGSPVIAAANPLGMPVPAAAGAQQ

CC(C)COC(=O)c1[nH]c2ccc(F)cc2c1-c1cn(CC2CCN(Cc3ccc(-c4cccc5[nH]ccc45)c(Cl)c3)CC2)nn1 [AB690, Isobutyl 3-(1-((1-(3-chloro-4-(1H-indol-4-yl)benzyl)piperidin-4-yl)methyl)-1H-1,2,3-triazol-4-yl)-5-fluoro-1H-indole-2-carboxylate]
inhibition at 1 µM (ATP 10 μM): 31%

CCOC(=O)c1[nH]c2ccc(Cl)cc2c1-c1cn(CC2CCN(CCNS(=O)(=O)c3ccc(C)cc3)CC2)nn1 [AB505, Ethyl 5-chloro-3-(1-((1-(2-((4-methylphenyl)sulfonamido)ethyl)piperidin-4-yl)methyl)-1H-1,2,3-triazol-4-yl)-1H-indole-2-carboxylate]
IC50: 3760 nM

CC(C)COC(=O)c1[nH]c2ccc(F)cc2c1-c1cn(CC2CCN(S(=O)(=O)c3ccc(C(C)(C)C)cc3)CC2)nn1 [AB938]
inhibition at 1 µM (ATP 10 μM): 5%

O=C(c1[nH]c2ccc(F)cc2c1-c1cn(CC2CCN(CCNS(=O)(=O)N3CCC(c4c(F)cccc4F)CC3)CC2)nn1)C1CC1 [AB1304, N-(2-(4-((4-(2-(cyclopropanecarbonyl)-5-fluoro-1H-indol-3-yl)-1H-1,2,3-triazol-1-yl)methyl)piperidin-1-yl)ethyl)-4-(2,6-difluorophenyl)piperidine-1-sulfonamide]
IC50 [1]: 500 nM

CCOC(=O)c1[nH]c2ccc(F)cc2c1-c1cn(CC2CCN(CCNS(=O)(=O)c3ccc(C(C)C)cc3)CC2)nn1 [AB579, Ethyl 5-fluoro-3-(1-((1-(2-((4-isopropylphenyl)sulfonamido)ethyl)piperidin-4-yl)methyl)-1H-1,2,3-triazol-4-yl)-1H-indole-2-carboxylate]
IC50: 430 nM

CC(C)Cc1ccc(S(=O)(=O)NCCN2CCC(Cn3cc(-c4c(C(=O)N5CCOCC5)[nH]c5ccc(F)cc45)nn3)CC2)cc1 [AB1132, N-(2-(4-((4-(5-fluoro-2-(morpholine-4-carbonyl)-1H-indol-3-yl)-1H-1,2,3-triazol-1-yl)methyl)piperidin-1-yl)ethyl)-4-isobutylbenzenesulfonamide]
inhibition at 0.1 µM (ATP 10 μM): 4%

CC(C)COC(=O)c1[nH]c2ccc(Cl)cc2c1-c1cn(CC2CCN(CCNS(=O)(=O)c3ccc4ccccc4c3)CC2)nn1 [AB599, Isobutyl 5-chloro-3-(1-((1-(2-(naphthalene-2-sulfonamido)ethyl)piperidin-4-yl)methyl)-1H-1,2,3-triazol-4-yl)-1H-indole-2-carboxylate]
IC50: 3200 nM

CCc1ccc(S(=O)(=O)NCCN2CCC(Cn3cc(-c4c(C(=O)OCCO)[nH]c5ccc(F)cc45)nn3)CC2)cc1 [AB597, 2-Hydroxyethyl 3-(1-((1-(2-((4-ethylphenyl)sulfonamido)ethyl)piperidin-4 yl)methyl)-1H-1,2,3-triazol-4-yl)-5-fluoro-1H-indole-2-carboxylate]
IC50: 1600 nM

CC(C)CC(=O)c1[nH]c2ccc(F)cc2c1-c1cn(CC2CCN(CCNS(=O)(=O)c3ccc(-c4cccnc4Cl)cc3)CC2)nn1 [AB1284, 4-(2-chloropyridin-3-yl)-N-(2-(4-((4-(5-fluoro-2-(3-methylbutanoyl)-1H-indol-3-yl)-1H-1,2,3-triazol-1-yl)methyl)piperidin-1-yl)ethyl)benzenesulfonamide]
inhibition at 0.1 µM (ATP 10 μM): 15%

CC(C)COC(=O)c1[nH]c2ccc(F)cc2c1-c1cn(CC2CCN(Cc3ccc(Oc4cccc(C(C)C)c4)c(C(C)C)c3)CC2)nn1 [AB713, Isobutyl 5-fluoro-3-(1-((1-(3-isopropyl-4-(3-isopropylphenoxy)benzyl)piperidin-4-yl)methyl)-1H-1,2,3-triazol-4-yl)-1H-indole-2-carboxylate]
inhibition at 1 µM (ATP 10 μM): 5%

CCC(=O)c1[nH]c2ccc(F)cc2c1-c1cn(CC2CCN(CCNS(=O)(=O)c3ccc(-c4c(O)cccc4F)cc3)CC2)nn1 [AB1415, 2′-fluoro-N-(2-(4-((4-(5-fluoro-2-propionyl-1H-indol-3-yl)-1H-1,2,3-triazol-1-yl)methyl)piperidin-1-yl)ethyl)-6′-hydroxy-[1,1′-biphenyl]-4-sulfonamide]
IC50: 50 nM

CC(C)COC(=O)c1[nH]c2ccc(Cl)cc2c1-c1cn(CC2CCN(CCNS(=O)(=O)c3ccc(C(F)(F)F)cc3)CC2)nn1 [AB601, Isobutyl 5-chloro-3-(1-((1-(2-((4-(trifluoromethyl)phenyl)sulfonamido)ethyl)piperidin-4-yl)methyl)-1H-1,2,3-triazol-4-yl)-1H-indole-2-carboxylate]
IC50: 1400 nM

CCOC(=O)c1[nH]c2ccc(Cl)cc2c1-c1cn(CC2CCN(CCNS(=O)(=O)c3ccc(C(C)C)cc3)CC2)nn1 [AB582, Ethyl 5-chloro-3-(1-((1-(2-((4-isopropylphenyl)sulfonamido)ethyl)piperidin-4-yl)methyl)-1H-1,2,3-triazol-4-yl)-1H-indole-2-carboxylate]
IC50: 1250 nM

CC(C)COC(=O)c1[nH]c2ccc(F)cc2c1-c1cn(CC2CCN(CCNS(=O)(=O)c3ccc(C4=CCOCC4)cc3)CC2)nn1 [AB1074, isobutyl 3-(1-((1-(2-((4-(3,6-dihydro-2H-pyran-4-yl)phenyl)sulfonamido)ethyl)piperidin-4-yl)methyl)-1H-1,2,3-triazol-4-yl)-5-fluoro-1H-indole-2-carboxylate]
IC50: 69 nM

CC(=O)c1[nH]c2ccc(F)cc2c1-c1cn(CC2CCN(CCNS(=O)(=O)c3ccc(-c4c(F)cccc4F)cc3)CC2)nn1 [AB1288, N-(2-(4-((4-(2-acetyl-5-fluoro-1H-indol-3-yl)-1H-1,2,3-triazol-1-yl)methyl)piperidin-1-yl)ethyl)-2′,6′-difluoro-[1,1′-biphenyl]-4-sulfonamide]
IC50: 78 nM

CC(C)COC(=O)c1[nH]c2ccc(F)cc2c1-c1cn(CC2CCN(CCNS(=O)(=O)Cc3ccc(Cl)cc3)CC2)nn1 [AB936, isobutyl 3-(1-((1-(2-(((4-chlorophenyl)methyl)sulfonamido)ethyl)piperidin-4-yl)methyl)-1H-1,2,3-triazol-4-yl)-5-fluoro-1H-indole-2-carboxylate]
IC50 [1]: 550 nM

CC(=O)c1[nH]c2ccc(F)cc2c1-c1cn(CC2CCN(CCNS(=O)(=O)Cc3ccc(C(F)(F)F)cc3)CC2)nn1 [AB1315, N-(2-(4-((4-(2-acetyl-5-fluoro-1H-indol-3-yl)-1H-1,2,3-triazol-1-yl)methyl)piperidin-1-yl)ethyl)-1-(4-(trifluoromethyl)phenyl)methanesulfonamide]
inhibition at 0.1 µM (ATP 10 μM): 27%

CC(C)COC(=O)c1[nH]c2ccc(F)cc2c1-c1cn(CC2CCN(C(=O)c3ccc(-c4cccc5[nH]ccc45)c(C(F)(F)F)c3)CC2)nn1 [AB756, Isobutyl 3-(1-((1-(4-(1H-indol-4-yl)-3-(trifluoromethyl)benzoyl)piperidin-4-yl)methyl)-1H-1,2,3-triazol-4-yl)-5-fluoro-1H-indole-2-carboxylate]
inhibition at 1 µM (ATP 10 μM): 19%

CC(C)Cc1ccc(S(=O)(=O)NCCN2CCC(Cn3cc(-c4c(C(=O)c5cccnc5)[nH]c5ccc(F)cc45)nn3)CC2)cc1 [AB1301, N-(2-(4-((4-(5-fluoro-2-nicotinoyl-1H-indol-3-yl)-1H-1,2,3-triazol-1-yl)methyl)piperidin-1-yl)ethyl)-4-isobutylbenzenesulfonamide]
inhibition at 0.1 µM (ATP 10 μM): 3%

CC(C)COC(=O)c1[nH]c2ccc(F)cc2c1-c1cn(CC2CCN(CCNS(=O)(=O)c3ccc(Cl)cc3)CC2)nn1 [AB498, Isobutyl 3-(1-((1-(2-((4-chlorophenyl)sulfonamido)ethyl)piperidin-4-yl)methyl)-1H-1,2,3-triazol-4-yl)-5-fluoro-1H-indole-2-carboxylate]
IC50: 830 nM

CC(C)COC(=O)c1[nH]c2ccc(F)cc2c1-c1cn(CC2CCN(CCNS(=O)(=O)c3ccc(-c4cccnc4F)cc3)CC2)nn1 [AB1207, isobutyl 5-fluoro-3-(1-((1-(2-((4-(2-fluoropyridin-3-yl)phenyl)sulfonamido)ethyl)piperidin-4-yl)methyl)-1H-1,2,3-triazol-4-yl)-1H-indole-2-carboxylate]
inhibition at 0.05 µM (compound at 0.05 μM, ATP 10 μM): 61%

CC(C)COC(=O)c1[nH]c2ccc(F)cc2c1-c1cn(CC2CCN(CCNS(=O)(=O)c3ccc(C(F)(F)F)cc3)CC2)nn1 [AB600, Isobutyl 5-fluoro-3-(1-((1-(2-((4-(trifluoromethyl)phenyl)sulfonamido)ethyl)piperidin-4-yl)methyl)-1H-1,2,3-triazol-4-yl)-1H-indole-2-carboxylate]
IC50: 350 nM

CC(C)COC(=O)c1[nH]c2ccc(F)cc2c1-c1cn(CC2CCN(CCNS(=O)(=O)c3ccc(C4=CCC(F)(F)CC4)cc3)CC2)nn1 [AB1070, isobutyl 3-(1-((1-(2-((4′,4′-difluoro-2′,3′,4′,5′-tetrahydro-[1,1′-biphenyl])-4-sulfonamido)ethyl)piperidin-4-yl)methyl)-1H-1,2,3-triazol-4-yl)-5-fluoro-1H-indole-2-carboxylate]
IC50: 200 nM

COc1cccc(OC)c1-c1ccc(S(=O)(=O)NCCN2CCC(Cn3cc(-c4c(C(=O)OCC(C)C)[nH]c5ccc(F)cc45)nn3)CC2)cc1 [AB1206, isobutyl 3-(1-((1-(2-((2′,6′-dimethoxy-[1,1′-biphenyl])-4-sulfonamido)ethyl)piperidin-4-yl)methyl)-1H-1,2,3-triazol-4-yl)-5-fluoro-1H-indole-2-carboxylate]
IC50: 16 nM

COc1cccc(OC)c1-c1ccc(S(=O)(=O)NCCN2CCC(Cn3cc(-c4c(C(C)=O)[nH]c5ccc(F)cc45)nn3)CC2)cc1F [AB1454, N-(2-(4-((4-(2-acetyl-5-fluoro-1H-indol-3-yl)-1H-1,2,3-triazol-1-yl)methyl)piperidin-1-yl)ethyl)-2-fluoro-2′,6′-dimethoxy-[1,1′-biphenyl]-4-sulfonamide]
IC50: 11 nM

CC(C)COC(=O)c1[nH]c2ccc(F)cc2c1-c1cn(CC2CCN(CCNS(=O)(=O)c3ccc4c(c3)CCC4)CC2)nn1 [AB932, isobutyl 3-(1-((1-(2-((2,3-dihydro-1H-indene)-5-sulfonamido)ethyl)piperidin-4-yl)methyl)-1H-1,2,3-triazol-4-yl)-5-fluoro-1H-indole-2-carboxylate]
IC50: 75 nM

CC(C)COC(=O)c1[nH]c2ccc(F)cc2c1-c1cn(CC2CCN(CCNS(=O)(=O)c3ccc(C(C)(C)C)cc3)CC2)nn1 [AB934, isobutyl 3-(1-((1-(2-((4-(tert-butyl)phenyl)sulfonamido)ethyl)piperidin-4-yl)methyl)-1H-1,2,3-triazol-4-yl)-5-fluoro-1H-indole-2-carboxylate]
IC50: 52 nM

Reference: patent US20230278983A1, “INDOLE DERIVATIVES AND USES THEREOF FOR TREATING A CANCER” (Universite Claude Bernard Lyon 1, priority 2020, published 2023)
